Where a SMILES comes first, the peptide text is derived from it. [ ]: non-standard residue; d: D form. The star is where a group is joined. cisHyp = O=C(O)[C@@H]1C[C@H](O)CN1; NMeL = CN[C@@H](CC(C)C)C(=O)O; NMeV = CN[C@H](C(=O)O)C(C)C; Octanoyl = CCCCCCCC(=O)*
Key:
[1] = test system: Allergic Human Purified Peripheral Blood Eosinophils; experiment: Percent eosinophil apoptosis (Annexin V-FITC, flow cytometry) in allergic human purified peripheral blood eosinophils; assay type: cell-based; settings: IL-5 (50 pM), 18 hr incubation; for viability at 10 µg/mL / Percent apoptotic eosinophils (annexin V-positive) at 10 µg/mL: Homo sapiens, Eosinophil, 10 μg/mL test compound, assay SD +/-2.3%; for viability at 10 µg/mL: read-out: Percent live EO cells; for Percent apoptotic eosinophils (annexin V-positive) at 10 µg/mL: read-out: Percent of apoptotic EO cells
Procedure: Percent Eosinophil Apoptosis in Allergic Human Purified Peripheral Blood Eosinophils
Aliquots were removed after 18 hr incubation, washed twice in PBS, and resuspended in binding buffer. The eosinophil cells were stained using the Annexin V-FITC Apoptosis Detection Kit I, (Sigma Aldrich) and immediately analyzed by flow cytometry. Each sample was acquired for 1 min, and the total number of eosinophils gated on a forward scatter/side scatter plot and the percentage of live cells (annexin Vneg) and apoptotic cells (annexin Vpos) was recorded.

[2] = test system: CD11b on PMNL surface; experiment: CD11b change on PMNL surface stimulated by CCL11 (flow cytometry); assay type: cell-based; settings: 30 min pretreatment, 2.5 nm CCL11 30 min at 37° C., CD16 negative cells; for activity at 1 µg/mL: Homo sapiens, PMNL, 0.5 h, 1 μg/mL test compound, assay SD +/-2%, read-out: CD11b change (100% as baseline)
Procedure: CD11b Change (100% as Baseline) on PMNL Surface Stimulated by 2.5 nm CCL11
(PMNL) cells were pretreated with 3 μg/mL ApoA-IV (positive control), 1 μg/mL test compounds, and formulation vehicle (negative control) for 30 minutes and incubated with serial dilutions of CCL 11 for 30 minutes at 37° C. Samples were stained with anti-CD16-PE-Cy5 and anti-CD11b-PE (ICRF44) antibodies. Eosinophils were identified as CD16 negative cells. CD11b upregulation was analyzed by flow cytometry and reported above. (Standard deviation in the assay is +/−2%). See results in Table 2 below.

[3] = 3 μg/mL ApoA-IV (positive control)

Molecule	viability at 10 µg/mL ([1]; annexin Vneg)	Percent apoptotic eosinophils (annexin V-positive) at 10 µg/mL ([1]; annexin Vpos)	activity at 1 µg/mL [2]	Total percent live and apoptotic EO cells [1, 3]	Percent live EO cells ([1]; 3 μg/mL ApoA-IV (positive control), annexin Vneg)	Percent of apoptotic EO cells ([1]; 3 μg/mL ApoA-IV (positive control), annexin Vpos)	CD11b change (100% as baseline) [2, 3]
CC/C=C\C/C=C\C/C=C\C/C=C\C/C=C\CCCC(=O)N(C)[C@@H](Cc1ccccc1)C(=O)N[C@H](C(=O)N(C)[C@H](C(=O)N1CCC[C@H]1C(=O)N1C(=O)C=CC1=O)C(C)C)C(C)OC(C)=O (stereo partly drawn) [Compound 24a]	33.8%	64.9%					
CCCCC(C)CC(C)C(=O)N(C)[C@@H](CC(C)C)C(=O)N[C@H](C(=O)N(C)[C@H](C(=O)N1C[C@@H](O)C[C@H]1C(=O)N1C(=O)C=C[C@@H]1C)C(C)C)C(C)O (stereo partly drawn) [Compound 8a]	31.2%	60.1%	122%				
CCCC[C@@H](C)C[C@@H](C)C(=O)N(C)[C@@H](CC(C)C)C(=O)N[C@H](C(=O)N(C)[C@H](C(=O)N1C[C@@H](O)C[C@H]1C(=O)N1C(=O)C=C[C@@H]1C)C(C)C)C(C)OC(C)=O (stereo partly drawn) [Compound 1a]	42.5%	53.2%	129%				
CC/C=C\C/C=C\C/C=C\C/C=C\C/C=C\CCCC(=O)N(C)[C@@H](CC(C)C)C(=O)N[C@H](C(=O)N(C)[C@H](C(=O)N1C[C@@H](O)C[C@H]1C(=O)N1C(=O)C=CC1=O)C(C)C)C(C)OC(C)=O (stereo partly drawn) [Compound 21a]	38.2%	58%					
CC(C)C[C@@H](C(=O)N[C@H](C(=O)N(C)[C@H](C(=O)N1C[C@@H](O)C[C@H]1C(=O)N1C(=O)C=C[C@@H]1C)C(C)C)C(C)O)N(C)C(=O)C1CCCCC1 (stereo partly drawn) [Compound 13a]	51.3%	44%					
CCCCCCCC(=O)N(C)[C@@H](CC(C)C)C(=O)N[C@@H](COC(C)=O)C(=O)N(C)[C@H](C(=O)N1C[C@@H](O)C[C@H]1C(=O)OC)C(C)C [Compound 17a] (Octanoyl-[NMeL]S(Ac)[NMeV][cisHyp]-OMe)	53.5%	48.2%					
CCCCC(C)CC(C)C(=O)N(C)CC(=O)N[C@H](C(=O)N(C)CC(=O)N1C[C@@H](O)C[C@H]1C(=O)N1C(=O)C=C[C@@H]1C)C(C)OC(C)=O (stereo partly drawn) [Compound 7a]	59.4%	39.9%	149%				
CC/C=C\C/C=C\C/C=C\C/C=C\C/C=C\CCCC(=O)N(C)[C@@H](CC(C)C)C(=O)N[C@H](C(=O)N(C)[C@H](C(=O)N1C[C@@H](O)C[C@H]1C(=O)N1C(=O)C=C[C@@H]1C)C(C)C)C(C)O (stereo partly drawn) [Compound 14a]	26.6%	67.1%					
CCCCC(C)CC(C)C(=O)N(C)[C@@H](CC(C)C)C(=O)N[C@H](C(=O)N(C)[C@H](C(=O)N1CCC[C@H]1C(=O)N1C(=O)C=CC1=O)C(C)C)C(C)OC(C)=O (stereo partly drawn) [Compound 12a]	52%	42.1%	141%				
CCCCC(C)CC(C)C(=O)N[C@@H](CC(C)C)C(=O)N[C@H](C(=O)N[C@H](C(=O)N1C[C@@H](O)C[C@H]1C(=O)N1C(=O)C=C[C@@H]1C)C(C)C)C(C)OC(C)=O (stereo partly drawn) [Compound 6a]	54.5%	42.8%	141%				
CC/C=C\C/C=C\C/C=C\C/C=C\C/C=C\CCCC(=O)N(C)[C@@H](Cc1ccccc1)C(=O)N[C@H](C(=O)N(C)[C@H](C(=O)N1C[C@@H](O)C[C@H]1C(=O)N1C(=O)C=CC1=O)C(C)C)C(C)OC(C)=O (stereo partly drawn) [Compound 23a]	31.4%	65.6%					
CC/C=C\C/C=C\C/C=C\C/C=C\C/C=C\CCCC(=O)N(C)[C@@H](CC(C)C)C(=O)N[C@H](C(=O)N(C)[C@H](C(=O)N1C[C@@H](O)C[C@H]1C(=O)N1C(=O)C=CC1=O)C(C)C)C(C)O (stereo partly drawn) [Compound 22a]	28.1%	68.7%					
CC/C=C\C/C=C\C/C=C\C/C=C\C/C=C\CCCCCC(=O)N(C)[C@@H](Cc1ccccc1)C(=O)N[C@H](C(=O)N(C)[C@H](C(=O)N1CCC[C@H]1C(=O)N1C(=O)C=CC1=O)C(C)C)C(C)O (stereo partly drawn) [Compound 26a]	30%	67.3%					
CCCCCCCC(=O)N(C)[C@@H](CC(C)C)C(=O)N[C@H](C(=O)N(C)[C@@H](CCSC)C(=O)N1C[C@@H](O)C[C@H]1C(=O)N1C(=O)C=CC1=O)C(C)OC(C)=O (stereo partly drawn) [Compound 19a]	52.7%	41.8%					
CCCCCCCC(=O)N(C)[C@H](C(=O)N[C@H](C(=O)N(C)[C@@H](Cc1c[nH]c2ccccc12)C(=O)N1C[C@@H](O)C[C@H]1C(=O)N1C(=O)C=CC1=O)C(C)OC(C)=O)C(C)CC (stereo partly drawn) [Compound 20a]	59.3%	39.4%					
CCCCC(C)CC(C)C(=O)N(C)[C@@H](CC(C)C)C(=O)N[C@@H](CS)C(=O)N(C)[C@H](C(=O)N1CCC[C@H]1C(=O)N1C(=O)C=C[C@@H]1C)C(C)C (stereo partly drawn) [Compound 11a]	49.7%	44.4%	135%				
CC/C=C\C/C=C\C/C=C\C/C=C\C/C=C\CCCC(=O)N(C)[C@@H](CC(C)C)C(=O)N[C@H](C(=O)N(C)[C@H](C(=O)N1C[C@@H](O)C[C@H]1C(=O)N1C(=O)C=C[C@@H]1C)C(C)C)C(C)OC(C)=O (stereo partly drawn) [Compound 27a]	39.1%	56.5%					
CCCCC(C)CC(C)C(=O)N(C)[C@@H](CC(C)C)C(=O)N[C@@H](COC(C)=O)C(=O)N(C)[C@H](C(=O)N1C[C@@H](O)C[C@H]1C(=O)N1C(=O)C=C[C@@H]1C)C(C)C (stereo partly drawn) [Compound 9a]	39.6%	56.4%	127%				
CC/C=C\C/C=C\C/C=C\C/C=C\C/C=C\CCCC(=O)N(C)[C@@H](Cc1ccccc1)C(=O)N[C@H](C(=O)N(C)[C@H](C(=O)N1CCC[C@H]1C(=O)N1C(=O)C=CC1=O)C(C)C)C(C)O (stereo partly drawn) [Compound 25a]	22.3%	73.1%					
CCCCCCCC(=O)N(C)[C@@H](Cc1ccccc1)C(=O)N[C@H](C(=O)N(C)[C@H](C(=O)N1C[C@@H](O)C[C@H]1C(=O)N1C(=O)C=CC1=O)C(C)C)C(C)OC(C)=O (stereo partly drawn) [Compound 18a]	41%	55.5%					
CCCCC(C)CC(C)C(=O)N(C)[C@@H](CC(C)C)C(=O)N[C@H](C(=O)N(C)[C@H](C(=O)N1C[C@@H](O)C[C@H]1C(=O)N1C(=O)C=C[C@@H]1C)C(C)C)C(C)OC(C)=O (stereo partly drawn) [Compound 1b]	41.8%	55%	128%				
CCCCCCCC(=O)N(C)[C@@H](CC(C)C)C(=O)N[C@H](C(=O)N(C)[C@H](C(=O)N1C[C@@H](O)C[C@H]1C(=O)N1C(=O)C=C[C@@H]1C)C(C)C)C(C)OC(C)=O (stereo partly drawn) [Compound 5a]	42.9%	53.1%	129%				
CCCC[C@@H](C)C[C@@H](C)C(=O)N(C)[C@@H](CC(C)C)C(=O)N[C@H](C(=O)N(C)[C@H](C(=O)N1CCC[C@H]1C(=O)N1C(=O)C=C[C@@H]1C)C(C)C)C(C)OC(C)=O (stereo partly drawn) [Compound 3a]	51.6%	43.7%	139%				
ApoA-IV: positive control in the eosinophil apoptosis and CD11b assays, used at 3 μg/mL (protein, UniProt P06727 21-396, looked up) Apolipoprotein A-IV: EVSADQVATVMWDYFSQLSNNAKEAVEHLQKSELTQQLNALFQDKLGEVNTYAGDLQKKLVPFATELHERLAKDSEKLKEEIGKELEELRARLLPHANEVSQKIGDNLRELQQRLEPYADQLRTQVSTQAEQLRRQLTPYAQRMERVLRENADSLQASLRPHADELKAKIDQNVEELKGRLTPYADEFKVKIDQTVEELRRSLAPYAQDTQEKLNHQLEGLTFQMKKNAEELKARISASAEELRQRLAPLAEDVRGNLRGNTEGLQKSLAELGGHLDQQVEEFRRRVEPYGENFNKALVQQMEQLRQKLGPHAGDVEGHLSFLEKDLRDKVNSFFSTFKEKESQDKTLSLPELEQQQEQQQEQQQEQVQMLAPLES				92.4%	29.3%	63.1%	121%
